Results on eight compounds are retold here after PMC6891666, “Identifying Phlorofucofuroeckol-A as a Dual Inhibitor of Amyloid-β25-35 Self-Aggregation and Insulin Glycation: Elucidation of the Molecular Mechanism of Action” (Marine Drugs, 2019).

The structures appear in SMILES notation. Like-named read-outs stand apart in the source and are kept apart here.

For one data set, the target named is T1, Aβ25-35 (Homo sapiens, UniProt P05067).
T1 construct: Gly1 and Phe1 for insulin) and C-terminals (Met35 for Aβ25-35; purchased Sigma-Aldrich
In words: Aβ25-35 self-aggregation assay (thioflavin-T fluorescence). Format: biochemical. As to conditions: for inhibition at 10 µM: read-out: inhibition of Aβ25-35 self-aggregation. The procedure:
A monomeric Aβ25-35 solution was prepared using the method of Naldi and coworkers. A 2.5 μL aliquot of various concentrations of the tested phlorotannins in 50 mM phosphate buffer (pH 7.4) with 100 mM NaCl was added to 72.5 μL of Aβ25-35 sample (100 μM), and the mixture was incubated at 4 °C for 1 day. After incubation, 25 μM thioflavin T in 50 mM glycine-NaOH buffer (pH 8.5) was added to the reaction mixture. Fluorescence emission intensity was monitored at 490 nm (λexc = 446 nm) using a fluorescence microplate reader (Gemini XPS, Molecular Devices, Sunnyvale, CA, USA).

Data set [1] has as its target T2, bovine insulin (Bos taurus, UniProt P01317).
T2 construct: Phe1 and Asn3 in chain B and Ser12, Gln15, Glu17, and Asn18 in chain A of the insulin; purchased Sigma-Aldrich; host or cells: bovine pancreas
In words: D-ribose-induced non-enzymatic insulin glycation assay. The data set is classed as biochemical. As to conditions: for inhibitory activity on D-ribose-induced insulin glycation: at 100 µM. The procedure: (§1) Glycated bovine insulin was observed by fluorescence spectroscopy because AGEs are marked by a typical fluorescence emission at 410 nm (excitation at 320 nm). To verify our experimental condition, we used vanillin as a negative control for D-ribose-induced protein glycation and rutin as a positive control for d-glucose-induced protein glycation.
(§2) The insulin from bovine pancreas was dissolved in third grade distilled water to a concentration of 6 mg/mL and acidified to pH 2.4 using phosphoric acid to produce monomeric insulin. Then the insulin solution was neutralized to pH 7.0 using 10 M NaOH. Non-enzymatic glycation of insulin was initiated by mixing the insulin solution, 0.5 M D-ribose (or 1.5 M D-glucose) in 50 mM NaH2PO4 buffer (pH 7.0), and 10% dimethyl sulfoxide (DMSO) or the test phlorotannins in a 1:8:1 ratio and incubating the mixture at 37 °C for 6 days (2 weeks for D-glucose induced insulin glycation). Vanillin was used as a negative control for D-ribose induced insulin glycation, whereas rutin was used as a positive control for D-glucose induced insulin glycation. After incubation, the reaction mixture was measured at an excitation wavelength of 320 nm and emission wavelength of 410 nm using a fluorescence microplate reader (Gemini XPS).

Data set [2] has as its target T2, bovine insulin. In words: D-glucose-induced non-enzymatic insulin glycation assay. The data set is classed as biochemical. The procedure:
as §1, §2

Data set [3] deals with lipid peroxidation in rat brain homogenates. In words: Lipid peroxidation (TBARS) assay in whole rat brain homogenates. Format: biochemical. As to conditions: Fe2+-treated rat brain homogenates, MDA level, mean ± SD, n = 3. The procedure: Whole rat brain homogenates were prepared from freshly killed Sprague Dawley rats (male, 6-months old) and provided by the Aging Tissue Bank of Pusan National University. One g of whole rat brain was homogenized in 10 mL of cold 20 mM sodium phosphate buffer containing 140 mM KCl (pH 7.4) and centrifuged at 1300× g for 15 min.
A TBA reactive species (TBARS) assay was used to evaluate the antioxidant activity of the phlorotannins in the rat brain homogenates. An aliquot of the supernatant fraction of the homogenates was mixed with phlorotannins dissolved in 10% DMSO, freshly prepared ferric sulfate (250 μM), and distilled water in a 10:5:3:12 ratio, and then the reaction mixture was incubated at 37 °C for 1 h. The reaction was completed by adding a color reagent containing 0.8% TBA, 8.1% SDS, and a 7.5% (final concentration) acetic acid-NaOH solution (pH 3.4) in a 2:1:2 ratios. The mixture was boiled in a water bath for 1 h. After cooling, the reaction mixture was mixed with an equal volume of n-butanol and centrifuged at 1300× g for 10 min. The absorbance of the upper layer was measured at 532 nm using a spectrophotometer (Molecular Devices). The formation of TBARS was expressed as MDA nmol/mg protein using 1,1,3,3-tetramethoxypropane as a standard. Trolox was used as a positive control.

For data set [4] the following is noted: rats, intravenous injection; cited from earlier work.
On the set-up of data set [5]: method as in PMID 30744179. As to conditions: pharmacokinetic parameter prediction study; cited from earlier work.
Setting [6] is: at 10 μM, thioflavin-T fluorescence.
Setting [7] is: thioflavin-T fluorescence, Aβ25-35 100 μM, mean ± SD, n = 3, read-out: IC50 Aβ25-35 Aggregation.
Setting [8] is: bovine insulin, D-ribose, mean ± SD, n = 3, read-out: IC50 D-Ribose-Induced Insulin Glycation.
[9] abbreviates: bovine insulin, D-glucose, 2 weeks incubation, mean ± SD, n = 3, read-out: IC50 D-Glucose-Induced Insulin Glycation.

T2 sequence (P01317 25-54 limits assumed): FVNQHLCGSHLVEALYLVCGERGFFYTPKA
T2 sequence (P01317 85-105 limits assumed): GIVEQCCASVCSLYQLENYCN

For `Oc1cc(O)cc(Oc2c(O)cc(O)c3c2Oc2c(O)cc(Oc4c(O)cc(Oc5c(O)cc(O)c6c5Oc5c(O)cc(O)cc5O6)cc4O)cc2O3)c1` [Dieckol, dieckol], the inhibition – broadly, the drop in the measured response relative to a control, in per cent – at 10 µM on Aβ25-35 (setting [6]) was 67%. For the same compound, the values for the IC50 on Aβ25-35 (setting [7]), on bovine insulin [1] (setting [8]) and on bovine insulin [2] (setting [9]) were 7.93 ± 0.16 µM, 63.7 ± 3.83 µM and more than 100 µM, respectively. It took 13.5 ± 0.38 µM to reach a half-maximal effect in data set [3] (EC50). In addition, the BBB passage result in data set [4] is recorded as “effectively passed the BBB”.

On to `Oc1cc(O)c2oc3cc(O)c4oc5cc(O)cc(O)c5oc4c3oc2c1` [Dioxinodehydroeckol, dioxinodehydroeckol], for which, on Aβ25-35, the half-inhibitory concentration (IC50) (commonly the concentration at which inhibition is half-maximal) is 8.31 ± 0.23 µM and the inhibition at 10 µM is 66.1%. For the same compound, at bovine insulin [1], the concentration for half-maximal inhibition (IC50) is more than 100 µM and the “inhibitory activity on D-ribose-induced insulin glycation” value was “weak or no inhibitory activity”. In addition, the concentration for half-maximal inhibition (IC50) against bovine insulin [2] is more than 100 µM. Further, in data set [3], a half-maximal response (EC50) required 12.4 ± 1.5 µM.

As to `Oc1cc(O)cc(Oc2c(O)cc(O)c3c2Oc2c(O)cc(O)cc2O3)c1` [Eckol, eckol], the inhibition at 10 µM on Aβ25-35 (setting [6]) turned out to be 34.5%. The 50% inhibitory concentration (IC50) on Aβ25-35 (setting [7]) was 34.4 ± 1.11 µM; on bovine insulin [1] (setting [8]) it was 259 ± 10.8 µM; on bovine insulin [2] (setting [9]), more than 100 µM. Besides, the concentration for a half-maximal effect (EC50) – broadly, the concentration needed to bring the measured effect to its halfway point – in data set [3] is 38.6 ± 1.16 µM. In data set [5], the CNS penetration entry was “penetrates the CNS moderately”.

`Oc1cc(O)cc(Oc2c(O)cc(O)c3c2Oc2c(O)cc4oc5c(Oc6cc(O)cc(O)c6)c(O)cc(O)c5c4c2O3)c1` [Phlorofucofuroeckol-A, phlorofucofuroeckol-A]: the inhibition at 10 µM on Aβ25-35 (setting [6]) came out at 80%. Further, the IC50 was found to be 6.18 ± 0.18 µM on Aβ25-35 (setting [7]), 29.5 ± 0.53 µM at bovine insulin [1] (setting [8]) and 43.5 ± 2.38 µM on bovine insulin [2] (setting [9]). In addition, the midpoint of the response in data set [3], the EC50, lay at 11 ± 0.16 µM.

As for `Oc1cc(O)cc(O)c1` [Phloroglucinol, phloroglucinol], at Aβ25-35 (at 50 μM), the “inhibitory effect on Aβ25-35 self-aggregation” value is “no inhibitory effect”. For the same compound, the IC50 on Aβ25-35 (setting [7]), on bovine insulin [1] (setting [8]) and on bovine insulin [2] (setting [9]) was more than 100 µM each time. Further, the “inhibitory activity on D-ribose-induced insulin glycation” value on bovine insulin [1] is listed as “weak or no inhibitory activity”. Moreover, testing at 100 µM against bovine insulin [2] (at 100 µM) gave an inhibition of 40%. The concentration giving a half-maximal response (EC50) in data set [3] is more than 75 µM.

Consider `C[C@@H]1O[C@@H](OC[C@H]2O[C@@H](Oc3c(-c4ccc(O)c(O)c4)oc4cc(O)cc(O)c4c3=O)[C@H](O)[C@@H](O)[C@@H]2O)[C@H](O)[C@H](O)[C@H]1O` [Rutin, rutin, reference compound], for which, on bovine insulin [2] (setting [9]), the concentration for half-maximal inhibition (IC50) is 5.19 ± 1.35 µM.

Regarding `Cc1c(C)c2c(c(C)c1O)CCC(C)(C(=O)O)O2` (stereo not shown) [Trolox, reference compound], in data set [3], the half-maximal effective concentration (EC50) is 49 ± 3.5 µM.

Take `COc1cc(C=O)ccc1O` [Vanillin, vanillin, reference compound]: the “activity on D-ribose-induced insulin glycation” value on bovine insulin [1] (at 500 µM, negative control) is “no activity”. The IC50 at bovine insulin [1] (setting [8]) was more than 500 µM.
